In this series the test system is mandarins. The series is described as follows: Visible appearance of vapor-treated mandarins. Format: in vivo. The settings on record: 72 hours vapor of 3 mL in a Petri dish. How it is done: Example 1. The antifungal activity of diallyl disulfide (DADS) vapor against Penicillium digitatum (Pd) was tested in mandarins. All samples were wounded by puncturing with a screw and infected by dispensing 1000 Pd spores suspended in 10 μL of water into each wound. The test groups consisted of mandarins that were: untreated; dipped in a solution of 1 g/L of imazalil; and exposed for 72 hours to the vapor of 3 mL of DADS in a Petri dish.
Example 2. The antifungal activity of allyl isothiocyanate (AITC) and DADS vapor was tested against Pd and Penicillium italicum (Pi) in mandarins. All samples were wounded by puncturing with a screw. Mandarins were infected by dispensing either 1000 Pd spores or 1000 Pi spores suspended in 10 μL into the wound. The test groups consisted of mandarins that were: uninfected and untreated; uninfected and treated by dipping in a solution of 1 g/L of imazalil; infected with Pd and untreated; infected with Pd and exposed to AITC; infected with Pd and exposed to DADS; infected with Pi and untreated; infected with Pi and exposed to AITC; and infected with Pi and exposed to DADS. Exposure to AITC or DADS consisted of exposing the mandarins for 72 hours to the vapor of 3 mL of the respective compound dispensed in a Petri dish. […]
Example 5. […] The test groups were then left at ambient temperature, high humidity, and assessed for Pd mold after 6 days. […]

“Also recorded” adds a separate entry of the source.

On to `C=CCSSCC=C` [DADS, diallyl disulfide], for which the “visible appearance of treated fruit” value is recorded as “no visible degradation or discoloration; also recorded: No difference in appearance”.

The record behind these values is US20250204541A1, “GAS PHASE TREATMENT OF PRODUCE” (priority 2022, published 2025).
